Data on 1 molecule can be found in patent publication US7339065B2, “Design and synthesis of optimized ligands for PPAR” (Bethesda Pharmaceuticals, Inc., priority 2003, dated 2008).

The target in one assay is T1, PPARgamma (Homo sapiens, UniProt P37231).
T1 construct: uses chimeric receptors where the PPAR LBD is fused to the DBD of the yeast transcription factor GAL4; expressed in transfected cells
T1 sequence (P37231 238-503 limits assumed): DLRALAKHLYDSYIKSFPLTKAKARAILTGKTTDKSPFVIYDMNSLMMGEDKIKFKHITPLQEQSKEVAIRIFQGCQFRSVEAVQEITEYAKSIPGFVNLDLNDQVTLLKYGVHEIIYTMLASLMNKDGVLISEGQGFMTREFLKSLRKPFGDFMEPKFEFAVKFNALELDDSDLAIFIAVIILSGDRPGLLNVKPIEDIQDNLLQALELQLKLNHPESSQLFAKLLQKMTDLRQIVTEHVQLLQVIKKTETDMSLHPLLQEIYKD
Description: cell based transactivation assay, PPARgamma. The settings on record: activation, transactivation assay in vitro; read-out: EC50 for PPAR isoforms: PPARgamma. The method, then: (§1) The binding of agonist ligands to the receptor results in changes in the expression level of mRNAs encoded by PPAR target genes. This process, “transactivation”, is determined by cell-based assays which monitor this functional activity. Transactivation assays use cells that have been transfected with a vector expressing the receptor as well as a second vector containing a DNA direct repeat (DR-1) response element and a reporter gene, which encodes an enzyme such as chloramphenicol acetyltransferase, secreted placental alkaline phosphatase, or firefly luciferase. […]
(§2) The binding of agonist ligands to a nuclear receptor results in transactivation, i.e., changes in the expression level of mRNAs encoded by PPAR target genes. […] Activation of the receptor by agonist ligands leads to induction of reporter enzyme expression, which can be conveniently assayed using standard colorimetric or photometric plate readers. […]

Assay [1] has as its system human psoriasis skin engrafted onto severe combined immunodeficient (SCID) mice. The experiment in a line: SCID mouse, human skin transplant model of psoriasis. It is filed as in vivo. An excerpt: Background: Human psoriasis skin engrafted onto severe combined immunodeficient (SCID) mice maintains its abnormal histologic characteristics in the absence of any treatment. Treatment of this SCID mouse, human skin transplant model of psoriasis with anti-psoriatic drugs will improve the histologic phenotype of the transplanted psoriatic skin. Thus, the SCID mouse with transplanted human psoriatic skin represents a useful model of psoriasis and can be used to test the therapeutic effects of antipsoriatic drugs (as described in the following references: 1) Nickoloff B J, Kunkel S L, Burdick […]. Severe combined immunodeficiency mouse and human psoriatic skin chimeras. Validation of a new animal model. Am J Pathol. 1995; 146:580-588. […] Archives of Dermatology 136:609-616, 2000). Methods: Keratome pieces of lesional psoriasis skin were transplanted onto immunodeficient mice (such as CB17 strain) as previously described (Nickoloff B J, Kunkel S L, Burdick […]. Am J Pathol. 1995; 146:580-588. Ellis […], Fisher […], Benson S C, Kurtz T W. Archives of Dermatology. 136:609-616, 2000). The transplanted tissue was allowed to heal for four weeks after which six animals were treated once daily for 4-8 weeks by topical application of BP107 to the psoriatic skin in concentrations sufficient to exert an antipsoriatic effect (concentrations ranging from 0.1 micromolar to 10 millimolar in appropriate amounts of vehicle such as DMSO, propylene glycol, or other vehicles familiar to those skilled in the art). At the end of the treatment period, the animals were sacrificed, tissue pieces were fixed in 10% buffered formalin, embedded in paraffin, sectioned, stained with hematoxylin and eosin, and evaluated histologically using techniques familiar to those skilled in the art. Animals topically treated with the corresponding vehicle without any BP107 were used as controls.

A further assay concerns the target T2, PPARdelta (Homo sapiens, UniProt Q03181).
T2 construct: uses chimeric receptors where the PPAR LBD is fused to the DBD of the yeast transcription factor GAL4; expressed in transfected cells
T2 sequence (Q03181 211-439 limits assumed): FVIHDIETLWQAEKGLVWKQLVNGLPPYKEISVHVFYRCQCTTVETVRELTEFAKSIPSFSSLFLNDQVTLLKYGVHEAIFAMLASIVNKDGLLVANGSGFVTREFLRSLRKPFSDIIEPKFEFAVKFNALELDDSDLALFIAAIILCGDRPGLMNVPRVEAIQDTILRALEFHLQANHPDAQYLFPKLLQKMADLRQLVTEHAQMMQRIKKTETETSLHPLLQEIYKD
The experiment in a line: cell based transactivation assay, PPARdelta. Conditions: activation, transactivation assay in vitro; read-out: EC50 for PPAR isoforms: PPARdelta. The method, then: as §1, §2

In another assay the target is T3, PPARalpha (Homo sapiens, UniProt Q07869).
T3 construct: uses chimeric receptors where the PPAR LBD is fused to the DBD of the yeast transcription factor GAL4; expressed in transfected cells
T3 sequence (Q07869 239-466 limits assumed): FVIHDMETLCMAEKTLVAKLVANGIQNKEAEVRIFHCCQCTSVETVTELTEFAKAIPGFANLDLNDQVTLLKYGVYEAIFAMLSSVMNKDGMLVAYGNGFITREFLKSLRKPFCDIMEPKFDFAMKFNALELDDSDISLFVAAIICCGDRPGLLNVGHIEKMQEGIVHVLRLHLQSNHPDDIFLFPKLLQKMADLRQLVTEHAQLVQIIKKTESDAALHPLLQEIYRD
The experiment in a line: cell based transactivation assay, PPARalpha. Conditions: activation, transactivation assay in vitro; read-out: EC50 for PPAR isoforms: PPARalpha. On the procedure:
as §1, §2

Setting [2] is: topical, once daily for 4-8 weeks, histology.

Take `CN(CCOc1ccc(CC2SC(=O)NC2=O)cc1)C(=O)CCCCC1C2CC3CC(C2)CC1C3` (stereo not drawn) [BP 107, 5-Adamantan-2-yl-pentanoic acid {2-[4-(2,4-dioxo-thiazolidin-5-ylmethyl)-phenoxy]-ethyl}-methyl-amide]: on PPARgamma, the EC50 is less than 0.001 µM. Further, in assay [1] (topical BP107 vs weaker PPAR gamma activators), the “antipsoriatic effect compared to animals treated with troglitazone or rosiglitazone” value is given as “much better”. Also, in assay [1] (setting [2]), the granular layer entry was “present in much of the epidermis”, the inflammatory response entry is listed as “reduced” and the “pattern of epidermal differentiation” value is on record as “more normal pattern”. In addition, the overall skin thickness result in assay [1] (topical, once daily for 4-8 weeks, histology, vs vehicle controls) is reported as “reduced”. Further, the “anti-psoriatic effect compared to control animals” value in assay [1] (topical, once daily for 4-8 weeks, controls treated with vehicle) was “clearly evident”. The EC50 at PPARdelta was more than 10 µM. The EC50 at PPARalpha was more than 10 µM.
